Values after ≈ are worked out from the molar mass of the structure shown.
Experiments:
[1] = Stability data of solid forms on storage; format: physicochemical
[2] = test system: M. avium Far; experiment: MIC, Protocol #4 Mycobacterium species; format: cell-based
[3] = test system: Neisseria gonorrhoeae; experiment: MIC90 panel, Protocol #3 agar dilution; format: cell-based; settings: 13 isolates
[4] = test system: Neisseria gonorrhoeae ATCC 35541; experiment: MIC, Protocol #3 agar dilution; format: cell-based
[5] = test system: Bacteroides fragilis; experiment: MIC90 panel, Protocol #3 agar dilution; format: cell-based; settings: 25 isolates
[6] = test system: M. abscessus BB1; experiment: MIC, Protocol #4 Mycobacterium species; format: cell-based
[7] = test system: Enterococcus faecium ATCC 49624; experiment: MIC, Protocol #1 microdilution broth; format: cell-based
[8] = test system: M. kansasii 316; experiment: MIC, Protocol #4 Mycobacterium species; format: cell-based
[9] = test system: M. abscessus MC 6153; experiment: MIC, Protocol #4 Mycobacterium species; format: cell-based
[10] = test system: Bacteroides and Parabacter spp.; experiment: MIC90 panel, Protocol #3 agar dilution; format: cell-based; settings: 26 isolates
[11] = test system: Staphylococcus aureus; experiment: MIC90 panel, Protocol #1 microdilution broth; format: cell-based; settings: 67 isolates
[12] = test system: Bacillus subtilis (168) ATCC 6051; experiment: MIC, Protocol #1 microdilution broth; format: cell-based
[13] = test system: Streptococcus pneumoniae ATCC 10015; experiment: MIC, Protocol #1 microdilution broth; format: cell-based; settings: Streptococcus pneumoniae ATCC 10015, with Laked Horse Blood
[14] = test system: Nocardia caviae 2497; experiment: MIC, Protocol #4 Mycobacterium species; format: cell-based
Description: Protocol #4. MIC Determination Procedure for Mycobacterium Species
Inoculum Preparation for M. kansasii, M. avium, M. abscessus and Nocardia spc.: • 1. Used prepared frozen stock of culture or a fresh culture grown in 7H10 broth at a concentration of 10 Klett or 5×10^7/ml. • 2. Prepared a 1:20 dilution by removing 1.0 ml of the culture stock and added it to 19 ml of 7H10 broth (final concentration 2.5×10^6 cfu/ml). • 3. From this dilution prepared a 1:20 dilution, removed 1 ml and added it to 19 ml of fresh broth (final suspension).
Plate Preparation: • 1. Labeled plates. • 2. Added 50 μl of 7H10 broth +10% OADC to all wells being utilized for MIC determination using a multichannel electronic pipettor. • 3. Prepared stock solutions of drugs (e.g. 1 mg/ml concentration) to be tested. • 4. Thawed and diluted frozen stock solutions using 7H10 broth +10% OADC to obtain a working solution 4× the maximum concentration tested (e.g. final concentration 32 μg/ml, highest concentration tested was 8 μg/ml). Dilutions were made from the stock solution. To start at a concentration of 1 μg/ml, the drugs were prepared at 4 μg/ml, so the starting concentration was 1 μg/ml. Removed 25 μl of the 1 mg/ml stock and added to 6.2 ml of broth. All dilutions of drugs were done in broth. • 5. Added 50 μl of the 4× working solution to the first well of the designated row. […] Read visually and recorded the results.

[15] = test system: M. tuberculosis Erdman ATCC 35801; experiment: MIC, Protocol #4 Mycobacterium species; format: cell-based
[16] = test system: M. abscessus MC 6136; experiment: MIC, Protocol #4 Mycobacterium species; format: cell-based
[17] = test system: Enterococcus faecalis ATCC 29212; experiment: MIC, Protocol #1 microdilution broth; format: cell-based; settings: Enterococcus faecalis ATCC 29212, with Laked Horse Blood
[18] = test system: M. kansasii 379; experiment: MIC, Protocol #4 Mycobacterium species; format: cell-based
[19] = test system: Enterococcus faecalis; experiment: MIC90 panel, Protocol #1 microdilution broth; format: cell-based; settings: 34 isolates
[20] = test system: Neisseria meningitidis; experiment: MIC90 panel, Protocol #3 agar dilution; format: cell-based; settings: 12 isolates
[21] = test system: M. tuberculosis Erdman ATCC 35801; experiment: Protocol #5 Mycobacterium tuberculosis Serum Shift MIC Assay; format: cell-based
[22] = test system: M. kansasii 303; experiment: MIC, Protocol #4 Mycobacterium species; format: cell-based
[23] = test system: N. nova 10; experiment: MIC, Protocol #4 Mycobacterium species; format: cell-based
[24] = test system: Staphylococcus aureus ATCC 29213 GyrB T173I; experiment: MIC, Protocol #1 microdilution broth; format: cell-based
[25] = test system: M. abscessus BB2; experiment: MIC, Protocol #4 Mycobacterium species; format: cell-based
[26] = test system: Clostridium perfringens; experiment: microbe, parasite or virus in culture; format: cell-based
[27] = test system: N. asteroids 2039; experiment: MIC, Protocol #4 Mycobacterium species; format: cell-based
[28] = test system: M. abscessus MC 6142; experiment: MIC, Protocol #4 Mycobacterium species; format: cell-based
[29] = test system: Bacillus cereus ATCC 14579; experiment: MIC, Protocol #1 microdilution broth; format: cell-based
[30] = test system: M. abscessus BB6; experiment: MIC, Protocol #4 Mycobacterium species; format: cell-based
[31] = test system: M. avium 3404.4; experiment: MIC, Protocol #4 Mycobacterium species; format: cell-based
[32] = test system: Clostridium difficile; experiment: MIC90 panel, Protocol #3 agar dilution; format: cell-based; settings: 16 isolates
[33] = test system: M. abscessus BB8; experiment: MIC, Protocol #4 Mycobacterium species; format: cell-based
[34] = test system: Neisseria gonorrhoeae ATCC 49226; experiment: MIC, Protocol #3 agar dilution; format: cell-based
[35] = test system: M. abscessus MC 5901; experiment: MIC, Protocol #4 Mycobacterium species; format: cell-based

SMILES: CCNC(=O)Nc1nc2cc(-c3cnc(C(C)(C)O)nc3)c(F)c([C@H]3CCCO3)c2[nH]1 [Compound 24, 1-ethyl-3-[6-fluoro-5-[2-(1-hydroxy-1-methyl-ethyl)pyrimidin-5-yl]-7-[(2R)-tetrahydrofuran-2-yl]-1H-benzimidazol-2-yl]urea]
- chemical and physical stability ([1]; 25° C./60% RH, one week time point): chemically and physically unstable
- chemical stability ([1]; 40° C./ambient, t=2 weeks): chemically unstable
- MIC [2]: 0.23 µg/mL (≈ 0.537 µM)
- MIC90 [3]: 0.25 µg/mL (≈ 0.583 µM)
- MIC Range [3]: 0.12 to 0.25 µg/mL
- MIC [4]: 0.42 µg/mL (≈ 0.98 µM)
- MIC90 [5]: 16 µg/mL (≈ 37.3 µM)
- MIC Range [5]: 1 to 16 µg/mL
- MIC [6]: 2 µg/mL (≈ 4.67 µM)
- MIC ([7]; Enterococcus faecium ATCC 49624): 0.11 µg/mL (≈ 0.257 µM)
- MIC ([7]; Enterococcus faecium ATCC 49624 with Laked Horse Blood): 0.11 µg/mL (≈ 0.257 µM)
- MIC [8]: 0.06 µg/mL (≈ 0.14 µM)
- MIC [9]: 1 µg/mL (≈ 2.33 µM)
- MIC90 [10]: 16 µg/mL (≈ 37.3 µM)
- MIC Range [10]: 0.12 to 16 µg/mL
- MIC90 [11]: 0.03 µg/mL (≈ 0.07 µM)
- MIC Range [11]: 0.008 to 0.06 µg/mL
- MIC [12]: 4 µg/mL (≈ 9.34 µM)
- MIC [13]: 0.01 µg/mL (≈ 0.0233 µM)
- MIC [14]: 0.125 µg/mL (≈ 0.292 µM)
- MIC [15]: 0.06 µg/mL (≈ 0.14 µM)
- MIC [16]: 0.5 µg/mL (≈ 1.17 µM)
- MIC [17]: 0.028 µg/mL (≈ 0.0653 µM)
- MIC [18]: < 0.015 µg/mL
- MIC90 [19]: 0.06 µg/mL (≈ 0.14 µM)
- MIC Range [19]: 0.015 to 0.12 µg/mL
- MIC90 [20]: 0.03 µg/mL (≈ 0.07 µM)
- MIC Range [20]: 0.008 to 0.06 µg/mL
- MIC ([21]; M. tuberculosis Erdman ATCC 35801): 0.03 µg/mL
- MIC ([21]; M. tuberculosis Erdman ATCC 35801 with Mouse Serum): 0.5 µg/mL
- MIC [22]: 0.03 µg/mL (≈ 0.07 µM)
- MIC [23]: 1 µg/mL (≈ 2.33 µM)
- MIC [24]: 0.3 µg/mL (≈ 0.7 µM)
- MIC [25]: 1 µg/mL (≈ 2.33 µM)
- MIC90 [26]: 0.5 µg/mL (≈ 1.17 µM)
- MIC Range ([26]; 12 isolates, Protocol 3): 0.12 to 0.5 µg/mL
- MIC [27]: 1 µg/mL (≈ 2.33 µM)
- MIC [28]: 0.5 µg/mL (≈ 1.17 µM)
- MIC [29]: 0.031 µg/mL (≈ 0.0724 µM)
- MIC [30]: 0.5 µg/mL (≈ 1.17 µM)
- MIC [31]: 0.23 µg/mL (≈ 0.537 µM)
- MIC Range [32]: 0.06 to 4 µg/mL
- MIC90 ([32]; Clostridioides difficile): 0.25 µg/mL (≈ 0.583 µM)
- MIC [33]: 0.5 µg/mL (≈ 1.17 µM)
- MIC [34]: 1 µg/mL (≈ 2.33 µM)
- MIC [35]: 1 µg/mL (≈ 2.33 µM)
